Reference: patent US20040255344A1, “Rodent with urinary disturbance and method of constructing the same, and method of screening remedy for urinary disturbance using the rodent” (priority 2001, published 2004)
Structures can show the parent of a compound that is named as a salt.

System: urinary dysfunction model rat
Assay: screening test in urinary dysfunction model rat (superior colliculus lesion), cystometrography
Assay type: in vivo
Conditions: 0.3 mg/kg iv, 5 minutes after intravenous administration, FIG. 9
Text: FIG. 3 indicates a schematic diagram of a system to measure the status of accelerated urinary reflex used in the present invention.
Here, a cystometrogram is made when detecting the urinary reflex by putting a catheter (not indicated in the diagram) in the bladder, and continuously measuring the changes of internal bladder pressure through the said catheter.
Further, the volume of the bladder can be calculated from the results of this cystometrogram as follows. Specifically, when infusing physiological saline into the bladder at a constant rate, the volume of the bladder can be calculated by multiplying the time required to reach the threshold where the urinary reflex starts by the fixed rate.
An urinary dysfunction model rat was produced by the following method. […]
After the operation was complete and the animals had awakened from the anesthesia, the post-operative rat was measured using cystometrography based on the system indicated in FIG. 3, and the status of accelerated urinary reflex was confirmed.
Using a control rat and the rat produced under adequate conditions based on the present invention, the presence of a therapeutic effect was assessed after intravenously administering oxybutynin hydrochloride (0.3 mg/kg iv:iv means intravenous injection, and iv means the same in FIG. 9.), which is a candidate compound as a therapeutic agent for urinary dysfunction. […]

In the case of `CCN(CC)CC#CCOC(=O)C(O)(c1ccccc1)C1CCCCC1` (centres unmarked) [oxybutynin hydrochloride], the bladder volume is reported as “increased” and the “level of the urinary dysfunction” value is reported as “improved”.
